Patent publication US10597388B2, “Pyridazinone herbicides” (FMC CORPORATION, priority 2014, dated 2020)

Columns and labels:
Assay in all cases: Test D controlled growth environment herbicide test, pre- and postemergence
Assay type in all cases: in vivo
[1] = system: windgrass (Apera spica-venti)
How it was run: (§1)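 Pre-emergence: seeds sown in silt loam soil were sprayed with compound in a non-phytotoxic solvent mix containing surfactant. Post-emergence: plants at 2 to 18 cm (1- to 4-leaf stage) in peat moss/vermiculite medium got the same formulation. Visual 0–100 rating versus controls after 14 to 21 d.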

[2] = system: chamomile (scentless chamomile, Matricaria inodora)
How it was run: as §1

[3] = system: blackgrass (Alopecurus myosuroides)
How it was run: as §1

[4] = system: mustard, wild (wild mustard, Sinapis arvensis)
How it was run: as §1

[5] = system: barley, winter (winter barley, Hordeum vulgare)
How it was run: as §1

[6] = system: pigweed (Amaranthus retroflexus)
How it was run: as §1

[7] = system: foxtail, green (green foxtail, Setaria viridis)
How it was run: as §1

[8] = system: field poppy (Papaver rhoeas)
How it was run: as §1

[9] = system: wheat, spring (spring wheat, Triticum aestivum)
How it was run: as §1

[10] = system: chickweed (common chickweed, Stellaria media)
How it was run: as §1

[11] = system: bromegrass, downy (downy bromegrass, Bromus tectorum)
How it was run: as §1

[12] = system: wheat, winter (winter wheat, Triticum aestivum)
How it was run: as §1

[13] = system: oat, wild (wild oat, Avena fatua)
How it was run: as §1

[14] = system: lambsquarters (Chenopodium album)
How it was run: as §1

[15] = Postemergence, 31 g ai/ha, scale 0 to 100 (0 no effect, 100 complete control)
[16] = Postemergence, 125 g ai/ha, visual rating on scale 0 (no effect) to 100 (complete control), 14 to 21 d
[17] = Postemergence, 250 g ai/ha, scale 0 to 100 (0 no effect, 100 complete control)
[18] = Preemergence, 125 g ai/ha, scale 0 to 100 (0 no effect, 100 complete control)
[19] = Preemergence, 250 g ai/ha, scale 0 to 100, 0 no effect, 100 complete control
[20] = postemergence, 62 g ai/ha, scale 0 to 100, 0 no effect, 100 complete control
[21] = Preemergence, 62 g ai/ha, scale 0 to 100 (0 no effect, 100 complete control)

CCCC(=O)Oc1c(C)nn(C)c(=O)c1-c1c(C)sc2ccc(C)cc12 [Compound 105]
25: Plant response rating, Blackgrass [3, 20] | Plant response rating, Mustard, Wild [4, 20] | Plant response rating, Barley, Winter [5, 19] | Plant response rating, Wheat, Spring [9, 17] | Plant response rating, Bromegrass, Downy [11, 16]
0: Plant response rating (scale of 0 to 100), Mustard, Wild ([4]; Preemergence, 62 g ai/ha) | Plant response rating, Mustard, Wild [4, 18] | Barley, Winter plant response rating [5, 15] | Wheat, Spring plant response rating [9, 15] | Plant response rating (scale of 0 to 100), Wheat, Spring ([9]; Preemergence, 31 g ai/ha) | Plant response rating (scale of 0 to 100), Wheat, Spring ([9]; Preemergence, 62 g ai/ha) | Plant response rating, Wheat, Spring [9, 18] | Wheat, Winter plant response rating [12, 15] | Plant response rating (scale of 0 to 100), Wheat, Winter ([12]; Preemergence, 31 g ai/ha) | Plant response rating (scale of 0 to 100), Wheat, Winter ([12]; Preemergence, 62 g ai/ha)
100: Plant response rating, Chamomile [2, 16] | Plant response rating, Chamomile [2, 17] | Plant response rating, Pigweed [6, 16] | Plant response rating, Pigweed [6, 17] | Plant response rating (scale of 0 to 100), Pigweed ([6]; Preemergence, 31 g ai/ha) | Plant response rating (scale of 0 to 100), Pigweed ([6]; Preemergence, 62 g ai/ha) | Plant response rating, Pigweed [6, 18] | Plant response rating, Pigweed [6, 19] | Plant response rating, Pigweed [6, 20] | Plant response rating, Foxtail, Green [7, 19] | Plant response rating (scale of 0 to 100), Field Poppy ([8]; Preemergence, 31 g ai/ha) | Plant response rating (scale of 0 to 100), Field Poppy ([8]; Preemergence, 62 g ai/ha) | Plant response rating, Field Poppy [8, 18] | Plant response rating, Field Poppy [8, 19] | Plant response rating, Chickweed [10, 16] | Plant response rating, Chickweed [10, 17] | Plant response rating (scale of 0 to 100), Chickweed ([10]; Preemergence, 31 g ai/ha) | Plant response rating (scale of 0 to 100), Chickweed ([10]; Preemergence, 62 g ai/ha) | Plant response rating, Chickweed [10, 18] | Plant response rating, Chickweed [10, 19] | Plant response rating, Oat, Wild [13, 17] | Plant response rating, Oat, Wild [13, 19] | Plant response rating (scale of 0 to 100), Lambsquarters ([14]; Preemergence, 62 g ai/ha) | Plant response rating, Lambsquarters [14, 18] | Plant response rating, Lambsquarters [14, 19]
60: Windgrass plant response rating [1, 15] | Plant response rating, Blackgrass [3, 18]
15: Blackgrass plant response rating [3, 15] | Plant response rating, Barley, Winter [5, 17]
35: Plant response rating (scale of 0 to 100), Blackgrass ([3]; Preemergence, 31 g ai/ha) | Plant response rating (scale of 0 to 100), Bromegrass, Downy ([11]; Preemergence, 31 g ai/ha)
50: Plant response rating, Blackgrass [3, 21]
70: Plant response rating, Windgrass [1, 20] | Foxtail, Green plant response rating [7, 15] | Plant response rating, Foxtail, Green [7, 20] | Field Poppy plant response rating [8, 15] | Plant response rating, Bromegrass, Downy [11, 18]
75: Plant response rating (scale of 0 to 100), Windgrass ([1]; Preemergence, 31 g ai/ha) | Plant response rating, Blackgrass [3, 19] | Plant response rating, Mustard, Wild [4, 17] | Plant response rating, Foxtail, Green [7, 16] | Plant response rating, Field Poppy [8, 20] | Plant response rating, Bromegrass, Downy [11, 19]
90: Chickweed plant response rating [10, 15] | Plant response rating, Chickweed [10, 20] | Plant response rating, Lambsquarters [14, 16]
10: Plant response rating (scale of 0 to 100), Mustard, Wild ([4]; Preemergence, 31 g ai/ha) | Plant response rating, Barley, Winter [5, 16] | Plant response rating, Barley, Winter [5, 21] | Plant response rating, Barley, Winter [5, 18] | Plant response rating, Barley, Winter [5, 20] | Plant response rating, Wheat, Spring [9, 20] | Bromegrass, Downy plant response rating [11, 15] | Plant response rating, Wheat, Winter [12, 16]
40: Plant response rating, Mustard, Wild [4, 16] | Plant response rating, Wheat, Spring [9, 19]
55: Plant response rating (scale of 0 to 100), Foxtail, Green ([7]; Preemergence, 62 g ai/ha)
45: Plant response rating (scale of 0 to 100), Foxtail, Green ([7]; Preemergence, 31 g ai/ha)
20: Plant response rating, Mustard, Wild [4, 19] | Plant response rating, Wheat, Spring [9, 16] | Plant response rating, Bromegrass, Downy [11, 20] | Plant response rating, Wheat, Winter [12, 17]
5: Mustard, Wild plant response rating [4, 15] | Plant response rating (scale of 0 to 100), Barley, Winter ([5]; Preemergence, 31 g ai/ha) | Plant response rating, Wheat, Winter [12, 18] | Plant response rating, Wheat, Winter [12, 19] | Plant response rating, Wheat, Winter [12, 20]
65: Plant response rating, Blackgrass [3, 16] | Plant response rating, Blackgrass [3, 17] | Plant response rating, Foxtail, Green [7, 18] | Plant response rating, Bromegrass, Downy [11, 17] | Plant response rating, Bromegrass, Downy [11, 21]
85: Plant response rating, Windgrass [1, 17] | Plant response rating, Chamomile [2, 20] | Pigweed plant response rating [6, 15] | Plant response rating, Oat, Wild [13, 18] | Plant response rating, Oat, Wild [13, 20] | Lambsquarters plant response rating [14, 15]
80: Plant response rating, Windgrass [1, 16] | Plant response rating (scale of 0 to 100), Windgrass ([1]; Preemergence, 62 g ai/ha) | Plant response rating, Windgrass [1, 18] | Chamomile plant response rating [2, 15] | Plant response rating, Foxtail, Green [7, 17] | Plant response rating, Field Poppy [8, 16] | Plant response rating, Field Poppy [8, 17] | Oat, Wild plant response rating [13, 15] | Plant response rating (scale of 0 to 100), Oat, Wild ([13]; Preemergence, 31 g ai/ha) | Plant response rating (scale of 0 to 100), Oat, Wild ([13]; Preemergence, 62 g ai/ha)
95: Plant response rating, Windgrass [1, 19] | Plant response rating, Oat, Wild [13, 16] | Plant response rating, Lambsquarters [14, 17] | Plant response rating (scale of 0 to 100), Lambsquarters ([14]; Preemergence, 31 g ai/ha) | Plant response rating, Lambsquarters [14, 20]
